From patent US7877928B2, “Apparatus for use with a method for mass production of seedling of seed potato” (Koesan County, priority 2005, dated 2011)

What was measured:
[1] = system: in vitro potato seedlings, potato cultivar "Superior"; assay: Survival rates of stem cuttings of in vitro potato seedlings upon stem-cutting and acclimation according to supplemented components of MS medium; assay type: in vivo
Protocol: (§1) In order to determine conditions suitable for planting through stem cutting and acclimatizing tissue-cultured plantlets in DSCAC, the in vitro potato seedlings were evaluated for seedling quality and survival rates upon stem-cutting and acclimation according to the amount of supplemented components of MS medium.
(§2) The culture seedlings obtained from growing points collected from a seed potato cultivar, were tested for infection with viruses (PLRV, PVY, PVX, PVM, PVS and AMV) for selection of disease-free individuals. Then, plantlets were planted in 500-ml culture bottles containing 200 ml of a solid medium, which was prepared with a basic MS medium of pH 5.8 supplemented with 9 g/L of agar, and incubated for 25 days in a culture room under 4,500 Lux lighting for 18-20 hrs, and 0 Lux for 4-6 hrs using 4D fluorescent lamps, wherein the room temperature was maintained at 21° C. using an air conditioner. The in vitro potato seedlings were examined for growth states and survival rates upon stem-cutting and acclimation according to the amount of supplemented components of the medium.

[2] = system: in vitro potato seedlings, potato cultivar "Superior"; assay: Seedling quality (growth state) of in vitro tissue-cultured potato plantlets according to supplemented components of MS medium; assay type: in vivo
Protocol: as §1, §2

[3] = coumarin 0.010 mg/L + sucrose 30 g/L in MS medium
[4] = coumarin 0.010 mg/L + sucrose 80 g/L in MS medium
[5] = coumarin 0.015 mg/L + sucrose 30 g/L in MS medium
[6] = coumarin 0.015 mg/L + sucrose 80 g/L in MS medium
[7] = coumarin 0.020 mg/L + sucrose 30 g/L in MS medium
[8] = coumarin 0.020 mg/L + sucrose 80 g/L in MS medium
[9] = coumarin 0.025 mg/L + sucrose 30 g/L in MS medium
[10] = coumarin 0.025 mg/L + sucrose 80 g/L in MS medium
[11] = coumarin 0.030 mg/L + sucrose 30 g/L in MS medium
[12] = coumarin 0.030 mg/L + sucrose 80 g/L in MS medium
[13] = coumarin 0.035 mg/L + sucrose 30 g/L in MS medium
[14] = coumarin 0.035 mg/L + sucrose 80 g/L in MS medium
[15] = Table 2: sucrose 30 g/L, coumarin 0 mg/L in MS medium
[16] = Table 2: sucrose 80 g/L, coumarin 0 mg/L in MS medium
[17] = Table 3: sucrose 30 g/L, hyponex 0 g/L in MS medium
[18] = Table 3: sucrose 80 g/L, hyponex 0 g/L in MS medium
[19] = sucrose 20 g/L in MS medium, 25 days
[20] = sucrose 40 g/L in MS medium, 25 days
[21] = sucrose 60 g/L in MS medium, 25 days
[22] = sucrose 80 g/L in MS medium, 25 days
[23] = sucrose 100 g/L in MS medium, 25 days
[24] = sucrose 120 g/L in MS medium, 25 days
[25] = sucrose 140 g/L in MS medium, 25 days

For O=c1ccc2ccccc2o1 [Coumarin, coumarin], the “Survival rates of stem cuttings” value [1, 3] was 73, the “Survival rates of stem cuttings” value [1, 4] was 90 and the “Survival rates of stem cuttings” value [1, 5] was 78. The “Survival rates of stem cuttings” value [1, 6] was 92, the “Survival rates of stem cuttings” value [1, 7] was 80 and the “Survival rates of stem cuttings” value [1, 8] was 100. The “Survival rates of stem cuttings” value [1, 9] was 83, the “Survival rates of stem cuttings” value [1, 10] was 100 and the “Survival rates of stem cuttings” value [1, 11] was 88. For the same compound, the “Survival rates of stem cuttings” value [1, 12] was 100, the “Survival rates of stem cuttings” value [1, 13] was 81 and the “Survival rates of stem cuttings” value [1, 14] was 100. For the same compound, the “Seedling quality and survival rates” value ([2]; MS medium with 80 g/L sucrose and 0.025 mg/L coumarin, compared with other amounts) was “highest seedling quality and survival rates”, the Fresh weight [2, 3] was 0.57 g/plant and the Plant length [2, 3] was 6.1 cm/plant. It also gave a Fresh weight [2, 4] of 1.12 g/plant, a Plant length [2, 4] of 7.8 cm/plant and a Fresh weight [2, 5] of 0.63 g/plant. For the same compound, the Plant length [2, 5] was 6.5 cm/plant, the Fresh weight [2, 6] was 1.13 g/plant and the Plant length [2, 6] was 7.9 cm/plant. It also gave a Fresh weight [2, 7] of 0.71 g/plant, a Plant length [2, 7] of 6.7 cm/plant and a Fresh weight [2, 8] of 1.31 g/plant. It also gave a Plant length [2, 8] of 8.1 cm/plant, a Fresh weight [2, 9] of 0.84 g/plant and a Plant length [2, 9] of 6.9 cm/plant. For the same compound, the Fresh weight [2, 10] was 1.65 g/plant, the Plant length [2, 10] was 9.5 cm/plant and the Fresh weight [2, 11] was 0.86 g/plant. It also gave a Plant length [2, 11] of 6.7 cm/plant, a Fresh weight [2, 12] of 1.39 g/plant and a Plant length [2, 12] of 8.3 cm/plant. For the same compound, the Fresh weight [2, 13] was 0.71 g/plant, the Plant length [2, 13] was 6.4 cm/plant and the Fresh weight [2, 14] was 1.36 g/plant. The Plant length [2, 14] was 8.2 cm/plant.

With OC[C@H]1O[C@@](CO)(O[C@H]2O[C@H](CO)[C@@H](O)[C@H](O)[C@H]2O)[C@@H](O)[C@@H]1O [Sucrose, sucrose] the “Survival rates of stem cuttings” value [1, 15] was 33, the “Survival rates of stem cuttings” value [1, 16] was 70 and the “Survival rates of stem cuttings” value [1, 17] was 28. For the same compound, the “Survival rates of stem cuttings” value [1, 18] was 79, the “Survival rates of stem cuttings” value ([1]; sucrose 20 g/L in MS medium) was 27% and the “Survival rates of stem cuttings” value ([1]; sucrose 40 g/L in MS medium) was 34%. For the same compound, the “Survival rates of stem cuttings” value ([1]; sucrose 60 g/L in MS medium) was 59%, the “Survival rates of stem cuttings” value ([1]; sucrose 80 g/L in MS medium) was 71% and the “Survival rates of stem cuttings” value ([1]; sucrose 100 g/L in MS medium) was 68%. For the same compound, the “Survival rates of stem cuttings” value ([1]; sucrose 120 g/L in MS medium) was 67%, the “Survival rates of stem cuttings” value ([1]; sucrose 140 g/L in MS medium) was 72% and the Fresh weight [2, 15] was 0.53 g/plant. The Plant length [2, 15] was 5.3 cm/plant, the Fresh weight [2, 16] was 0.72 g/plant and the Plant length [2, 16] was 8.6 cm/plant. It also gave a Fresh weight [2, 17] of 0.53 g/plant, a Plant length [2, 17] of 7.2 cm/plant and a Fresh weight [2, 18] of 1.03 g/plant. The Plant length [2, 18] was 7.59 cm/plant, the Fresh weight [2, 19] was 0.47 g/plant and the Plant length [2, 19] was 6.2 cm/plant. The Fresh weight [2, 20] was 0.53 g/plant, the Plant length [2, 20] was 7.4 cm/plant and the Fresh weight [2, 21] was 0.58 g/plant. For the same compound, the Plant length [2, 21] was 9.3 cm/plant, the Fresh weight [2, 22] was 0.75 g/plant and the Plant length [2, 22] was 9.5 cm/plant. The “Benefit to in vitro plantlets (plant length, fresh weight, survival rates of stem cuttings)” value ([2]; sucrose 80 g/L in MS medium, compared with other amounts) was “most beneficial”, the Fresh weight [2, 23] was 0.69 g/plant and the Plant length [2, 23] was 6.1 cm/plant. The Fresh weight [2, 24] was 0.63 g/plant, the Plant length [2, 24] was 5.2 cm/plant and the Fresh weight [2, 25] was 0.67 g/plant. It also gave a Plant length [2, 25] of 2.1 cm/plant.
